A short description of data set [1]: Size and zeta potential of nanocomplexes by DLS. The format is physicochemical. As to conditions: nanocomplexes with DNA at charge ratio 10, DNA 25 ng/μl; for Size (nm): deionized water, 25° C. How it is done: The mean hydrodynamic diameter and zeta potential of nanocomplexes prepared at charge 10.0 at 25 ng/μl of DNA concentration in deionized water were measured by Zeta sizer Nano ZS (Malvern Instruments, UK) at a fixed angle of 173° at 25° C. Minimum of 3 readings were recorded for each sample with replicates. As presented in Table-2 all the peptides were able to make nanocomplexes with DNA. The size of nanocomplexes was ranging from 50 to 110 nm and Zeta potential was ranging from 30 to 60 mV.
The mean hydrodynamic diameter and zeta potential of nanocomplex (Table 2) prepared at charge 10 at 25 ng/μl of DNA concentration in deionized water were measured by Zeta sizer Nano ZS (Malvern Instruments, UK) at a fixed angle of 173° at 25° C. Minimum of 3 readings were recorded for each sample with replicates. All five invented peptides were able to Make monodisperse nanocomplex with sizes ranging from 50 nm to 110 nm with DNA.

For data set [2], the system named is CHO-K1 cells. Description: Cellular uptake of small RNA (Siglo) by flow cytometry. Format: cell-based, Chinese hamster. As to conditions: Siglo non-covalently complexed; for small RNA delivery: charge ratio 5; for uptake of the small RNA (fluorescence positive cells): charge ratio 5, CHO-K1, 4 h. The protocol: (§1) The uptake of the small RNA, which is noncovalently complexed with the peptides, was almost 100% in CHO-K1 cells at charge ratio 5 for Mgpe-9 and Mgpe-10. Siglo was used as a model small RNA. This RNA was used to prepare the nanocomplexes with the peptide at charge ratio 5.0. Chinese hamster ovary cells (CHO-K1) were maintained in Ham's F-12K media supplemented with 10% (v/v) Fetal bovine serum (Life Technologies, USA); at 37° C. and 5% CO2 in humidified incubator. Cells were grown in 24 well plate which was seeded 24 h before use. At a confluency of 70-80% the cells were treated with labelled nanocomplexes for 4 h at 37° C. After incubation, the media was removed and cells were washed twice with PBS supplemented with heparin (1 mg/ml). The cells were then treated with trypsin (0.25%) for 5-10 min and harvested in complete media, pelleted down, washed with PBS, resuspended in PBS having 1% BSA and then analyzed on FACS-Calibur™ (Becton Dickinson, USA) using CellQuest. Pro software. The labelled nanocomplexes were excited using 488 nm laser and detected with 530/30 nm (FL1) band pass filter. In each case total 10,000 events were acquired. Percentage of fluorescence positive cells was plotted as bars and their mean intensity was plotted as a line.
as §1, with “Siglo” for “The uptake of the small RNA, which is noncovalently complexed with the peptides, was almost 100% in CHO-K1 cells at charge ratio 5 for Mgpe-9 and Mgpe-10. Siglo”, “RNA” for “RNA.”, “plates” for “plate”, “CellQuest” for “CellQuest.”, “line. The uptake of the small RNA, which is noncovalently complexed with the peptides, was almost 100% in CHO-K1 cells at charge ratio 5 for Mgpe-9 and Mgpe-10. […] Nanocomplex containing invented peptide can carry biomolecules in the range of 20 bp to 7 kbp size.” for “line.”

A further data set concerns A549. Description: Luciferase transfection efficiency in A549 cells. Format: cell-based. The following applies: A549, charge ratio 5. From the text:
(§2) The transfection efficiency in terms of reporter gene expression has been checked using luciferase reporter assay. A plasmid (pMIR-Report™ Luciferase) containing luciferase gene was complexed with the peptide and transfected to the cell. The nanocomplexes were made at different charge ratios and transfected in a wide range of cell lines. CHO-K1 cells were maintained in Ham's F-12K media and MCF-7 and A549 cells in low glucose DMEM supplemented with 10% (v/v) Fetal bovine serum (Life Technologies, USA); at 37° C. and 5% CO2 in humidified incubator. Cells were seeded 24 h before transfection in 24-well plates. […] Luciferase expression was measured in 50 μl of cell lysate supernatant using the luciferase assay substrate (Promega). Light emission was measured by integration over 1 Os in Orion microplate luminometer (Berthold Detection System, Germany). […]
(§3) CHO-K1 cells were maintained in Ham's F-12K media and MCF-7 and A549 cells in low glucose DMEM supplemented with 10% (v/v) Fetal bovine serum (Life Technologies, USA); at 37° C. and 5% CO2 in humidified incubator. […] Luciferase expression was measured in 50 μl of cell lysate supernatant using the luciferase assay substrate (Promega). Light emission was measured by integration over 10 s in Orion micro plate luminometer (Berthold Detection System, Germany). […]

Data set [3] relates to CHO-K1 cells. Put plainly: Transfection in presence of 10% serum. Format: cell-based, Chinese hamster. The following applies: CHO-K1, charge ratio 20.
The test system of another data set is MCF-7. Put plainly: Luciferase transfection efficiency in MCF-7 cells. Format: cell-based. As to conditions: MCF-7, charge ratio 5.
From the text: as §2, §3

For data set [4], the system named is CHO-K1 cells. Put plainly: Luciferase transfection efficiency in CHO-K1 cells. Format: cell-based, Chinese hamster. The text has this: The transfection efficiency in terms of reporter gene expression has been checked using luciferase reporter assay. A plasmid (pMIR-Report™ Luciferase) containing luciferase gene was complexed with the peptide and transfected to the cell. The nanocomplexes were made at different charge ratios and transfected in a wide range of cell lines. CHO-K1 cells were maintained in Ham's F-12K media and MCF-7 and A549 cells in low glucose DMEM supplemented with 10% (v/v) Fetal bovine serum (Life Technologies, USA); at 37° C. and 5% CO2 in humidified incubator. Cells were seeded 24 h before transfection in 24-well plates. Nanocomplexes were prepared with final DNA concentration of 20 ng/μl and incubated for 1 h at room temperature. 100 μl of nanocomplex was added to cells at ˜70% confluency in serum-free media (OptiMEM, Invitrogen). After 5 h of incubation at 37° C. and 5% CO2 in humidified incubator, the media was aspirated; cells were washed with phosphate buffered saline (PBS, pH 7.4) and supplemented with 500 μl of complete growth medium. After 24 h, cells were washed with PBS and lysed with 100 μl of cell culture lysis buffer (1×CCLR, Promega). Luciferase expression was measured in 50 μl of cell lysate supernatant using the luciferase assay substrate (Promega). Light emission was measured by integration over 1 Os in Orion microplate luminometer (Berthold Detection System, Germany). Luciferase activity was normalized with total protein content of the cells estimated using BCA protein assay (Pierce).
CHO-K1 cells were maintained in Ham's F-12K media and MCF-7 and A549 cells in low glucose DMEM supplemented with 10% (v/v) Fetal bovine serum (Life Technologies, USA); at 37° C. and 5% CO2 in humidified incubator. Cells were seeded 24 h before transfection in 24-well plates. A plasmid (pMIR-Report™ Luciferase) containing luciferase gene was complexed with the peptide and transfected to the cell. The nanocomplexes were made at different charge ratios and transfected in a wide range of cell lines. Nanocomplexes were prepared with final DNA concentration of 20 ng/μl and incubated for 1 h at room temperature. 100 μl of nanocomplex was added to cells at 70% confluency in serum-free media (OptiMEM, Invitrogen). Cellfectin, Superfect and Lipofectamine2000 used as manufacturer protocol. In case of transfection in presence of serum, nanocomplexes were added in complete media. […] Luciferase expression was measured in 50 μl of cell lysate supernatant using the luciferase assay substrate (Promega). Light emission was measured by integration over 10 s in Orion micro plate luminometer (Berthold Detection System, Germany). […]

Data on 5 sequences can be found in patent US9669104B2, “Nanocomplex containing amphipathic peptide useful for efficient transfection of biomolecules” (Council of Scientific and Industrial Research, priority 2012, dated 2017).

“Also recorded” adds a separate entry of the source.

Consider “CLLYWFRRRHRHHRRRHRRC [Mgpe-10, Mgpe-4 with a cysteine residue at each end]”, for which, in data set [1], the PDI turned out to be 0.206 ± 0.004, the “Zeta potential(mV)” value was 57.6 ± 3.2 mV and the “Size (nm)” value was determined as 66.2 ± 0.7 nm. Moreover, in the data set on CHO-K1 cells [2], the “small RNA delivery” value is “found to show small RNA delivery” and the “uptake of the small RNA (fluorescence positive cells)” value is recorded as about 100%.
On to “CRRLRHLRHHYRRRWHRFRC [Mgpe-9, Mgpe-3 with a cysteine residue at each end]”, for which, in data set [1], the PDI came out at 0.169 ± 0.002, the “Zeta potential(mV)” value stood at 43.4 ± 0.1 mV and the “Size (nm)” value amounted to 75.8 ± 3.8 nm. Moreover, in the data set on CHO-K1 cells [2], the “small RNA delivery” value is reported as “found to show small RNA delivery” and the “uptake of the small RNA (fluorescence positive cells)” value is given as about 100%. Also, the “transfection efficiency (luciferase)” value with A549 is listed as “more than 10^6 RLU/mg protein”. In addition, the “transfection efficiency in presence of serum” value with CHO-K1 cells [3] is on record as “up to 10^7 RLU/mg protein”. For the same sequence, the “transfection efficiency (luciferase)” value with MCF-7 is recorded as “more than 10^8 RLU/mg protein”. The “transfection efficiency compared with Cellfectin, Superfect and Lipofectamine 2000” value with CHO-K1 cells [4] (CHO-K1, charge ratio 5) is on record as “higher or equal transfection efficiency; also recorded: highest transfection efficiency”. Besides, the “transfection efficiency (luciferase)” value in the data set with CHO-K1 cells [4] (CHO-K1, charge ratio 5, plasmid DNA non-covalently complexed) is on record as “more than 10^8 RLU/mg protein”.
Turning to “LLYWFRRRHRHHRRRHRR [Mgpe-4, primary amphipathic peptide by rearrangement of the amino acids of Mgpe-3]”, in data set [1], the PDI turned out to be 0.155 ± 0.010, the “Zeta potential(mV)” value is given as 25.4 ± 0.2 mV and the “Size (nm)” value is 62.8 ± 7.0 nm. Besides, the “transfection efficiency compared with Cellfectin and Superfect” value with CHO-K1 cells [4] (CHO-K1, charge ratio 5) is “higher or equal transfection efficiency”.
RRLRHLRHHYRRRWHRFR [Mgpe-3]: in data set [1], the PDI came to 0.152 ± 0.014, the “Zeta potential(mV)” value was 33.5 ± 5.9 mV and the “Size (nm)” value is on record as 63.2 ± 4.5 nm. The “transfection efficiency compared with Cellfectin and Superfect” value in the data set with CHO-K1 cells [4] (CHO-K1, charge ratio 10) was “higher or equal transfection efficiency”.
Turning to “SRLSHLRHHYSKKWHRFR (listed as Homo sapiens) [Mgpe-1, 18 mer amphipathic peptide derived from Human Protein phosphatase 1E; tested as nanocomplex with plasmid DNA]”, in data set [1], the PDI came to 0.151 ± 0.031, the “Zeta potential(mV)” value was 36.5 ± 0.8 mV and the “Size (nm)” value came out at 80.1 ± 7.3 nm.
